Results taken from paper PMC7248693, “Synthesis and Biological Evaluation of 2-Substituted Benzyl-/Phenylethylamino-4-amino-5-aroylthiazoles as Apoptosis-Inducing Anticancer Agents” (Molecules, 2020).
Each block holds one compound with its values, some of them ahead of it.

Legend:
[1] = tested on: tubulin; conditions: previously reported series with general structure 2; reference not printed at the place; read-out: IC50 tubulin assembly assay; cited from earlier work
[2] = tested on: panel of four different cancer cell lines; set-up: method as in earlier work; conditions: read-out: IC50 against a panel of four different cancer cell lines; cited from earlier work
[3] = tested on: U-937 leukemia cells; assay: Cell cycle analysis by flow cytometry (propidium iodide); format: cell-based, human
Description: Induction of apoptosis in cancer cells is recognized as an efficient strategy for cancer chemotherapy. For this reason, it was decided to determine whether these compounds display their cytotoxic action through alterations in cell cycle progression and induction of cell apotosis. To this end, the effects at different time periods (6, 12 and 24 h) with different concentrations (10 and 30 μM) of 8f and 8k on cell cycle progression on U-937 leukemia cells were investigated by flow cytometry analyses.
Flow cytometric analysis of propidium iodide-stained cells was performed as previously described. Briefly, U-937 cells were treated with the indicated compounds at the specified concentrations in RPMI 1640 medium. After treatments, cells were centrifuged for 10 min at 500× g, washed with cold phosphate-buffered saline (PBS), fixed with ice-cold 75% ethanol and stored at −20 °C for at least 1 h. Samples were then centrifuged at 500 × g for 10 min at 4 °C, washed with PBS, resuspended in 200 μL of PBS containing 100 μg mL^−1 RNase A and 50 μg mL^−1 propidium iodide and incubated for 1 h in the dark. The DNA content was analyzed by flow cytometry with a Becton-Dickinson FACSVerse^TM cytometer (BD Biosciences, San Jose, CA, USA). The percentage of cells in each phase of the cell cycle was determined for a minimum of 10^4 cells, and histograms were analyzed with Flowing 2.5.0 software.

[4] = biological target: T1, CDK9/CyclinK (Homo sapiens, UniProt P50750); assay: In vitro CDK inhibition assay (ADP-Glo), CDK9; format: biochemical; conditions: single concentration of 10 μM; range over CDK4, CDK6, CDK9 and 8f, 8k; read-out: enzyme inhibition CDK9
T1 construct: purchased Promega
Description: (§1) The CDK4, 6 and 9 inhibitory activies were determined using the CDK4/Cyclin D1 Assay kit (ProQinase, Freiburg im Breisgau, Germany), CDK6/Cyclin D3 Kinase Enzyme System (Promega, Milan, Italy) and CDK9/CyclinK Kinase Enzyme System (Promega) by ADP-Glo CDK assays following the manufacturer’s instructions. The assay was performed with the test compounds at 10 μM.

[5] = tested on: Bovine brain tubulin; assay: Inhibition of tubulin polymerization (turbidimetric assembly); format: biochemical
Description: Bovine brain tubulin was purified as described previously. To evaluate the effect of the compounds on tubulin assembly in vitro [31], varying concentrations were preincubated with 10 μM tubulin in glutamate buffer at 30 °C and then cooled to 0 °C. After addition of GTP, the mixtures were transferred to 0 °C cuvettes in a recording spectrophotometer and warmed to 30 °C, and the assembly of tubulin was observed turbidimetrically. The IC50 was defined as the compound concentration that inhibited the extent of assembly by 50% after a 20 min incubation.

[6] = biological target: T2, CDK4/Cyclin D1 (Homo sapiens, UniProt P11802); assay: In vitro CDK inhibition assay (ADP-Glo), CDK4; format: biochemical; conditions: single concentration of 10 μM; range over CDK4, CDK6, CDK9 and 8f, 8k; read-out: enzyme inhibition CDK4
T2 construct: purchased ProQinase
Description: as §1

[7] = Cytotoxicity against peripheral blood lymphocytes, MTT assay; format: cell-based; conditions: human, peripheral blood lymphocytes (PBL) from healthy donors, read-out: IC50 cytotoxic activity against normal cells (PBL)
Description: In order to investigate the selective antiproliferative activity of the new synthesized compounds, we tested representative derivatives 8f and 8k against peripheral blood lymphocytes (PBL) isolated from healthy donors.
PBLs from healthy donors were obtained by separation on Lymphoprep (Fresenius KABI Norge AS, Halden, Norway) gradient. After extensive washing, cells were resuspended (1.0 × 10^6 cells/mL) in RPMI-1640 with 10% fetal bovine serum and incubated overnight in a 96-well tissue culture microtiter plate. Varying compound concentrations were added to the cells, and the MTT assay was used to assess viability after a 48 h treatment.

[8] = biological target: T3, CDK6/Cyclin D3 (Homo sapiens, UniProt Q00534); assay: In vitro CDK inhibition assay (ADP-Glo), CDK6; format: biochemical; conditions: single concentration of 10 μM; range over CDK4, CDK6, CDK9 and 8f, 8k; read-out: enzyme inhibition CDK6
T3 construct: purchased Promega
Description: as §1

[9] = tested on: SK-MEL-1; assay: Antiproliferative activity, MTT assay, SK-MEL-1 cells; format: cell-based, human; conditions: Homo sapiens, SK-MEL-1; 72 h, MTT; mean ± SE, at least three independent experiments
Source text: (§2) In Table 1, we summarize the antiproliferative activity of the 15 novel 2-arylalkylamino-4-amino-5-(3′,4′,5′-trimethoxybenzoyl)thiazole derivatives 8a–o against human leukemia (U-937) and melanoma (SK-MEL-1) tumor cells lines.
(§3) Human U-937 and SK-MEL-1 cell lines were from the German Collection of Microorganisms and Cell Cultures (Braunschweig, Germany; DSMZ No: ACC 5 and ACC 303, respectively). The U-937 is a myeloid leukemia cell line isolated from a histiocytic lymphoma. SK-MEL-1 is a melanoma cell line. Cells were cultured in suspension in RPMI 1640 medium supplemented with 10% (v/v) fetal bovine serum and antibiotics (100 μg mL^−1 streptomycin and 100 U mL^−1 penicillin), at 37 °C in a humidified atmosphere containing 5% CO2. The trypan blue exclusion method was used for counting the cells by a hemocytometer, and cell viability was always greater than 95% in all experiments. Compounds were dissolved in DMSO, and further dilutions were made in culture medium just before use. […] The effects on cell viability of synthetic compounds were determined using a colorimetric assay with the reduction of 3-(4,5-dimethyl-2-thiazolyl-)-2,5-diphenyl-2H-tetrazolium bromide (MTT) as previously described. Briefly, 5 × 10^3 cells were seeded in 96-well microculture plates with increasing concentrations of compounds for 72 h. Then, MTT (0.5 mg mL^−1) was added and incubated for 4 h, and the reaction was stopped with 20% sodium dodecyl sulfate. A570 was used as a measure of cell viability. Concentrations inducing a 50% inhibition of cell growth were determined graphically by nonlinear regression using the curve-fitting algorithm of GraphPad Prism 4.0 (GraphPad Inc La Jolla, CA, USA).

[10] = tested on: U-937; assay: Antiproliferative activity, MTT assay, U-937 cells; format: cell-based, human; conditions: for IC50: Homo sapiens, U-937, 72 h, MTT, mean ± SE, at least three independent experiments
Source text: as §2, §3

[11] = tested on: CDK9; set-up: method as in PMID 30454645; conditions: cited from earlier work

T1 sequence (P50750 whole entry): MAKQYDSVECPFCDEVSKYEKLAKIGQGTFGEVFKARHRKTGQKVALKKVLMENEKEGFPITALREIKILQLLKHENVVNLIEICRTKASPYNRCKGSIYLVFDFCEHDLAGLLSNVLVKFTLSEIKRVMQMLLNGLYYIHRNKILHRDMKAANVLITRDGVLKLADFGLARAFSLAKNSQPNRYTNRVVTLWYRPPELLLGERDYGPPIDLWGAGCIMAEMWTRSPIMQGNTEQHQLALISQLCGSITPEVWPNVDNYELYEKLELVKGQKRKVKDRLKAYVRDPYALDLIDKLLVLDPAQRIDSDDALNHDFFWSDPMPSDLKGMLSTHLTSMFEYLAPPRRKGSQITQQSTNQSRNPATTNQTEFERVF
T1 sequence (O75909 whole entry partner): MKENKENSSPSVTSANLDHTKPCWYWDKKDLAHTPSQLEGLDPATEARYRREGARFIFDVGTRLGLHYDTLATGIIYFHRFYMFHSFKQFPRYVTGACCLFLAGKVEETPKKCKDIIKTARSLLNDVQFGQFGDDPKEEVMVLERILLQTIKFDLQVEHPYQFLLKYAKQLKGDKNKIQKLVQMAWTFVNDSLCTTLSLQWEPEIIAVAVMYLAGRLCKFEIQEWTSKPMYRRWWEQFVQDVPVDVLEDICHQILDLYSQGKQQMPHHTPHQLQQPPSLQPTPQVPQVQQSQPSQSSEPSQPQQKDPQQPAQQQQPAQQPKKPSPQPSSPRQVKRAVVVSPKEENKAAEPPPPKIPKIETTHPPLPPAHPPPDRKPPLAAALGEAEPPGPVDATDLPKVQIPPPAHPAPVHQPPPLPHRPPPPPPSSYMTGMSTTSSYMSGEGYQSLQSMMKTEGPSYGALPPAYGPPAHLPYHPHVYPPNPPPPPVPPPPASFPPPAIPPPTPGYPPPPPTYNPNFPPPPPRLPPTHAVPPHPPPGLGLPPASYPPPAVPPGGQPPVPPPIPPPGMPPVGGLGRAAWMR
T2 sequence (P11802 whole entry): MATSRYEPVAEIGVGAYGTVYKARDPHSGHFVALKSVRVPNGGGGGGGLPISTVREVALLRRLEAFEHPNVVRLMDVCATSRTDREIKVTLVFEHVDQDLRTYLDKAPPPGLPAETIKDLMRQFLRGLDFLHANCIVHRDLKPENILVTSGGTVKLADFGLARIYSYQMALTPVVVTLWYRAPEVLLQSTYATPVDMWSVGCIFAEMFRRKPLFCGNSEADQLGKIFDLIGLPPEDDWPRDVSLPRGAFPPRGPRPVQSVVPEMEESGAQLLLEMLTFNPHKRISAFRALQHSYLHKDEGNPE
T2 sequence (P24385 whole entry partner): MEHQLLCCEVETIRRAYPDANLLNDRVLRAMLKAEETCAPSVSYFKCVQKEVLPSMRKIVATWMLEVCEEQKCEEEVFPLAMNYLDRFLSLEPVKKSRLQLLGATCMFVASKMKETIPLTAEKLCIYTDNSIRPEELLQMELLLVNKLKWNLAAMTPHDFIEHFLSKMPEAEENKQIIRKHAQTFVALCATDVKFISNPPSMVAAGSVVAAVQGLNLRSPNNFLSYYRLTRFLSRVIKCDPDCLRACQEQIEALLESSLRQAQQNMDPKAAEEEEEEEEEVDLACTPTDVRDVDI
T3 sequence (Q00534 whole entry): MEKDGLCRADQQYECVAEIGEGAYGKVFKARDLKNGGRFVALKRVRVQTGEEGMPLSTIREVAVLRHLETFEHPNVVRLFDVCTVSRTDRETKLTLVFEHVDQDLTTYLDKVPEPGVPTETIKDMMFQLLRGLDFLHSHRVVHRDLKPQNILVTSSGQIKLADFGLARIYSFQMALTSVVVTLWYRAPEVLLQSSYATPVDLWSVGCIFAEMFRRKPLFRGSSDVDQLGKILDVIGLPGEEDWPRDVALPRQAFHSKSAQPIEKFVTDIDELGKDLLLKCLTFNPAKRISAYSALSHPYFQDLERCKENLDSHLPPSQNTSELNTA
T3 sequence (P30281 whole entry partner): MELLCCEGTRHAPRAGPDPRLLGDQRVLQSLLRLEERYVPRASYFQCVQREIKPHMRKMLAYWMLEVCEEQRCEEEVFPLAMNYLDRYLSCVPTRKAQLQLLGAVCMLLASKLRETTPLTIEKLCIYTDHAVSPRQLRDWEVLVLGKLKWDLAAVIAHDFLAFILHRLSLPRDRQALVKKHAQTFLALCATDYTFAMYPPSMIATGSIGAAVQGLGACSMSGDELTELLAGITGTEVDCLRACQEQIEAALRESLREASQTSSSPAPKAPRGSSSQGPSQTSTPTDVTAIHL

SMILES: COc1cc(C(=O)c2sc(Nc3ccc(C)cc3)nc2N)cc(OC)c1OC [2b]
IC50 [1]: 0.72 µM

SMILES: COc1cc(C(=O)c2sc(N(C)Cc3ccccc3)nc2N)cc(OC)c1OC [3a]
IC50 [2]: < 200 µM

inhibition at 10 µM [4]: 2 to 8% | IC50 ([5]; 10 μM tubulin, 20 min incubation at 30 °C): > 20 µM | inhibition at 10 µM [6]: 2 to 8% | inhibition at 10 µM [8]: 2 to 8% | IC50 [9]: 8 ± 4.3 µM | IC50 [10]: 5.7 ± 1.3 µM
SMILES: COc1ccc(CCNc2nc(N)c(C(=O)c3cc(OC)c(OC)c(OC)c3)s2)cc1 [8k, (4-Amino-2-((4-methoxyphenethyl)amino)thiazol-5-yl)(3,4,5-trimethoxyphenyl)methanone]
% G1 ([3]; 6 h, 10 µM): 38.7 ± 0.3 % | % G2-M ([3]; 6 h, 10 µM): 25.3 ± 0.2 % | % S ([3]; 6 h, 10 µM): 30.7 ± 0.1 % | % Sub-G1 ([3]; 6 h, 10 µM): 3.7 ± 0.4% | % G1 ([3]; 6 h, 30 µM): 35.6 ± 0.5 % | % G2-M ([3]; 6 h, 30 µM): 23.1 ± 0.4% | % S ([3]; 6 h, 30 µM): 32.0 ± 0.5 % | % Sub-G1 ([3]; 6 h, 30 µM): 7.6 ± 0.5 % | % G1 ([3]; 12 h, 10 µM): 41.9 ± 0.1 % | % G2-M ([3]; 12 h, 10 µM): 23.7 ± 1.4% | % S ([3]; 12 h, 10 µM): 20.2 ± 0.4% | % Sub-G1 ([3]; 12 h, 10 µM): 12.1 ± 0.8 % | % G1 ([3]; 12 h, 30 µM): 17.3 ± 0.4 % | % G2-M ([3]; 12 h, 30 µM): 29.9 ± 1.7 % | % S ([3]; 12 h, 30 µM): 26.8 ± 0.2 % | % Sub-G1 ([3]; 12 h, 30 µM): 24.3 ± 1.5 % | % G1 ([3]; 24 h, 10 µM): 39.4 ± 0.2 % | % G2-M ([3]; 24 h, 10 µM): 17.2 ± 0.6% | % S ([3]; 24 h, 10 µM): 28.4 ± 1.1 % | % Sub-G1 ([3]; 24 h, 10 µM): 12.7 ± 0.1 % | % G1 ([3]; 24 h, 30 µM): 11.2 ± 0.9 % | % G2-M ([3]; 24 h, 30 µM): 23.8 ± 2.9 % | % S ([3]; 24 h, 30 µM): 11.5 ± 0.4 % | % Sub-G1 ([3]; 24 h, 30 µM): 51.5 ± 4.2 % | increase of apoptotic cells with respect to control cells ([3]; 24 h, 30 µM): ~15 fold | inhibition of tubulin polymerization ([5]; at high concentrations (up to 20 μM)): did not show any noteworthy inhibition | IC50 at 48 h [7]: > 100 µM | increase of antiproliferative activity relative to 8j ([10]; cell line not specified (U-937 and SK-MEL-1)): 3-4 fold

SMILES: COc1ccc(/C=C\c2cc(OC)c(OC)c(OC)c2)cc1O [CA-4, combretastatin A-4, reference compound]
IC50 [1]: 1.4 µM | IC50 [9]: 3.1 ± 2.9 µM | IC50 [10]: 0.019 ± 0.012 µM

SMILES: Nc1nc(N[C@H]2CC3CCC2C3)sc1C(=O)c1ccccc1[N+](=O)[O-] (stereo partly drawn) [compound 7, 2-(exo-2′-aminonorbornane)-4-amino-5-(2′-nitrobenzoyl)-thiazole]
selectivity for CDK9 than for other CDKs [11]: at least 22 fold
